From patent publication US20110111972A1, “SELECTIVITY PROFILING OF PI3K INTERACTING MOLECULES AGAINST MULTIPLE TARGETS” (CELLZOME AG, priority 2008, published 2011)

What was measured:
Format in all cases: binding
PI3K delta = target: T1, PI3K delta (Homo sapiens, UniProt O00329); assay: Drug pulldown with immobilized phenylthiazole ligand 1, Western blot detection; settings: MOLT-4 cell lysate
T1 construct: endogenous in cells; host or cells: MOLT-4 (ATCC CRL-1582) cell lysate
Procedure: (§1) As biological material a cell lysate prepared from MOLT-4 cells was used. The drug pulldown experiment was performed as described in Example 2 with lysate samples containing 50 mg of protein. Captured proteins were eluted with DMSO containing buffer (lane 1), 100 μM of free phenylthiazole ligand 1 or SDS sample buffer (lane 3). The eluted samples were separated on SDS-polyacrylamide gels and transferred to membranes. The blots were first incubated with specific antibodies directed against PI3K gamma (FIG. 2A) and PI3K delta (FIG. 2B). Secondary detection antibodies labeled with fluorescent dyes for detection were used with the Odyssey infrared imaging system. Lane 1: DMSO elution control; lane 2: elution with 100 μM free phenylthiazole ligand 1; lane 3: SDS elution. […]
(§2) For Western blot analysis bound proteins were eluted from the affinity matrix and subsequently separated by SDS-Polyacrylamide gel elecrophoresis. PI3K gamma and PI3K delta were detected with specific antibodies (FIG. 2).
(§3) MOLT-4 cells were homogenized in a Potter S homogenizer in lysis buffer: 50 mM Tris-HCl, 0.8% NP40, 5% glycerol, 150 mM NaCl, 1.5 mM MgCl2, 25 mM NaF, 1 mM sodium vanadate, 1 mM DTT, pH 7.5. […] The supernatant was transferred again to a fresh 50 ml falcon tube, the protein concentration was determined by a Bradford assay (BioRad) and samples containing 50 mg of protein per aliquot were prepared. […]

PI3K gamma = target: T2, PI3K gamma (Homo sapiens, UniProt P48736); assay: as above; settings: MOLT-4 cell lysate
T2 construct: PI3K gamma protein was captured by immobilized phenylthiazole ligand 1 from MOLT-4 cell lysate; endogenous in cells; host or cells: MOLT-4 (ATCC CRL-1582) cell lysate
Procedure: as §1, §2, §3

ATM = target: T3, ATM (Homo sapiens, UniProt Q13315); assay: Drug pulldown with immobilized phenylthiazole ligand 1, mass spectrometry analysis; settings: 1:1 mixture of Jurkat and Ramos cell lysate
T3 construct: with a 1:1 mixture of Jurkat and Ramos cell lysate sample containing 50 mg of protein; endogenous in cells; host or cells: 1:1 mixture of Jurkat and Ramos cell lysates
T3 sequence (Q13315 whole entry): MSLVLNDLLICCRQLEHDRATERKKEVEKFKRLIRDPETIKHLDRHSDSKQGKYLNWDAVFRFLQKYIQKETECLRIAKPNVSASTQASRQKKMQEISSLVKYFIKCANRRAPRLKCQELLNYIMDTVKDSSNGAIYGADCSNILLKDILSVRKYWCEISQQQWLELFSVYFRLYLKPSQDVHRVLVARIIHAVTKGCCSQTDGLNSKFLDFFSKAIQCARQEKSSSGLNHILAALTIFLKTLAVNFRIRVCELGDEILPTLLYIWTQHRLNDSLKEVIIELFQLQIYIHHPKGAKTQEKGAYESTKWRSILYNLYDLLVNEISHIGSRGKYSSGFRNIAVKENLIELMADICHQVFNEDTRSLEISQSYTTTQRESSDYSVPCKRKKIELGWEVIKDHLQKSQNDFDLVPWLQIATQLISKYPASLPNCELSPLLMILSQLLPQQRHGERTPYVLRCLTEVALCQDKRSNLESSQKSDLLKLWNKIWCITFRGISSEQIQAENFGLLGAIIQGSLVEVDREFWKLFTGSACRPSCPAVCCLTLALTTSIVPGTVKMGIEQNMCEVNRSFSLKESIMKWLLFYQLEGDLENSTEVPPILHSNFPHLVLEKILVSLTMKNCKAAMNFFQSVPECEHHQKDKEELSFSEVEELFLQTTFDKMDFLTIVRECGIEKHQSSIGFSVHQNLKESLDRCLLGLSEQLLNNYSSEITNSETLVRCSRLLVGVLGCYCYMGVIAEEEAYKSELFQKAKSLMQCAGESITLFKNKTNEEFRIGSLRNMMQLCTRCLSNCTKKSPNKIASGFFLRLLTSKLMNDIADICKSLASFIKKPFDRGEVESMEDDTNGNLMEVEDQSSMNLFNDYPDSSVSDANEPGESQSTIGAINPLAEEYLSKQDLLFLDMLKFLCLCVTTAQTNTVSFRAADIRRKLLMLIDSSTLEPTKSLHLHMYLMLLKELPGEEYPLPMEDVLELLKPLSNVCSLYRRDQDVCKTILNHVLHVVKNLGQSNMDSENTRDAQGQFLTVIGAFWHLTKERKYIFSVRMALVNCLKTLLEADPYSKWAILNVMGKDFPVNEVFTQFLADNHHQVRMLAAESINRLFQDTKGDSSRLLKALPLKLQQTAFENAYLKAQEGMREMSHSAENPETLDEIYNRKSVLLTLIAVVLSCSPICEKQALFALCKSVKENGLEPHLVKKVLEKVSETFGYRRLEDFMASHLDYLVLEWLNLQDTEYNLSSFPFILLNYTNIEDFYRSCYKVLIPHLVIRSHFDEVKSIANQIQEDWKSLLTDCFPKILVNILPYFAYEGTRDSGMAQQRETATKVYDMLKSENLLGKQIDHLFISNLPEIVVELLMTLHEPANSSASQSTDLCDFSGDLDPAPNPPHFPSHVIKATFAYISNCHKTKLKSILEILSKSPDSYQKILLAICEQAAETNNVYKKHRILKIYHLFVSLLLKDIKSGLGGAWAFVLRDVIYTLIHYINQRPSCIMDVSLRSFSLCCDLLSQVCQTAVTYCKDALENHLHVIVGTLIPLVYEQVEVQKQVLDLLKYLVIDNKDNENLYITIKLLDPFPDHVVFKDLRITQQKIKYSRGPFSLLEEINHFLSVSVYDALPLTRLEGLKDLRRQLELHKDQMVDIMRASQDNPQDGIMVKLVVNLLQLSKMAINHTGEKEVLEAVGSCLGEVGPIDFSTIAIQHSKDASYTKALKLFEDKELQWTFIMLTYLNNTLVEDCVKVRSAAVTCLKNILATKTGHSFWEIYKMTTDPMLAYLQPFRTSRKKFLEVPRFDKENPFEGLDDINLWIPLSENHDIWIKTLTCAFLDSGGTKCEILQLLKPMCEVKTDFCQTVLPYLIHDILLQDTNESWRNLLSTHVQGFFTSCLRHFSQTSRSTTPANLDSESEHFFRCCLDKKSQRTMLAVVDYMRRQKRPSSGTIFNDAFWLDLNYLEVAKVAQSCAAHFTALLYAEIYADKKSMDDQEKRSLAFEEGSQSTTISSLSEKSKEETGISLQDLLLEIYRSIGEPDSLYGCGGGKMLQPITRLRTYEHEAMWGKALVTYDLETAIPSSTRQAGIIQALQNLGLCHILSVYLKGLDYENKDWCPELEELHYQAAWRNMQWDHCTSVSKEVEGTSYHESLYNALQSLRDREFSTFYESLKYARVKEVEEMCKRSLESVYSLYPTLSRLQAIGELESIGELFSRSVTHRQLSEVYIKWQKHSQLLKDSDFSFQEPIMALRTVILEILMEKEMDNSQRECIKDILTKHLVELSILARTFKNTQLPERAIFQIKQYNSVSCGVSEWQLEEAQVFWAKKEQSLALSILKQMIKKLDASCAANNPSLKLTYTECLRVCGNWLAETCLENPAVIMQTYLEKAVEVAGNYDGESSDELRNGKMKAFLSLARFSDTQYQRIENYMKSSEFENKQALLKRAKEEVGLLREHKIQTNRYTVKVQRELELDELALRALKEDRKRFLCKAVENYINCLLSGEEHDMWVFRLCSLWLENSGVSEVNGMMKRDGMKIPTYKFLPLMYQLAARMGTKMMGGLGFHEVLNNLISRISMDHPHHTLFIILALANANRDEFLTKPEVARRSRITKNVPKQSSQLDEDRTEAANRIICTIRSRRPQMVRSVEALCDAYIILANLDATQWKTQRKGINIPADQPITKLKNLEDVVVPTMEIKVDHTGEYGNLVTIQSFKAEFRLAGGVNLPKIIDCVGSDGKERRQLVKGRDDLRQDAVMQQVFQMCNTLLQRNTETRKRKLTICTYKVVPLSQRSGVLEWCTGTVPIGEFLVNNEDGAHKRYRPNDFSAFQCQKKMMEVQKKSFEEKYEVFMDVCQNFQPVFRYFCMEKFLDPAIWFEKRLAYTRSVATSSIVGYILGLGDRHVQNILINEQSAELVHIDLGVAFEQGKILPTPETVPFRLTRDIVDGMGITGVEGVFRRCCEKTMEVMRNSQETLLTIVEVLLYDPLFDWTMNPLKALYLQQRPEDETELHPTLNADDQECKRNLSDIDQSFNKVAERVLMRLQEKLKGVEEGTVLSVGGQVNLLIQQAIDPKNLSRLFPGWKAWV
Excerpt: (§4) A protein gel after staining with Coomassie blue is shown. The indicated gel areas were cut out as gel slices and proteins were subjected to analysis by mass spectrometry. […] Proteins bound to immobilized phenylthiazole ligand 1 were eluted with SDS sample buffer and separated by SDS-polyacrylamide gel electrophoresis (SDS-PAGE). The following proteins were identified in this experiment: DNA-PK, ATM, and mTOR. […] Beads were collected, transfered to Mobicol-columns (MoBiTech 10055) and washed with 10 ml lysis buffer containing 0.5% NP40 detergent, followed by 5 ml lysis buffer with 0.25% detergent. […] Proteins were then separated by SDS-Polyacrylamide electrophoresis (SDS-PAGE). Gel-separated proteins were reduced, alkylated and digested in gel essentially following the procedure described by Shevchenko et al., 1996, Anal. Chem. 68:850-858. Briefly, gel-separated proteins were excised from the gel using a clean scalpel, reduced using 10 mM DTT (in 5 mM ammonium bicarbonate, 54° C., 45 min) and subsequently alkylated with 55 mM iodoacetamid (in 5 mM ammonium bicarbonate) at room temperature in the dark (30 minutes). Reduced and alkylated proteins were digested in gel with porcine trypsin (Promega) at a protease concentration of 12.5 ng/μl in 5 mM ammonium bicarbonate. Digestion was allowed to proceed for 4 hours at 37° C. and the reaction was subsequently stopped using 5 μl 5% formic acid. Gel plugs were extracted twice with 20 μl 1% TFA and pooled with acidified digest supernatants. […] Peptide samples were injected into a nano LC system (CapLC, Waters or Ultimate, Dionex) which was directly coupled either to a quadrupole TOF (QTOF2, QTOF Ultima, QTOF Micro, Micromass) or ion trap (LCQ Deca XP) mass spectrometer. […] Proteins were identified by correlating the measured peptide mass and fragmentation data with the same data computed from the entries in the database using the software tool Mascot (Matrix Science; Perkins et al., 1999. Probability-based protein identification by searching sequence databases using mass spectrometry data. Electrophoresis 20, 3551-3567). […]

DNA-PK = target: T4, DNA-PK (Homo sapiens, UniProt P78527); assay: as above; settings: 1:1 mixture of Jurkat and Ramos cell lysate
T4 construct: with a 1:1 mixture of Jurkat and Ramos cell lysate sample containing 50 mg of protein; endogenous in cells; host or cells: 1:1 mixture of Jurkat and Ramos cell lysates
Excerpt: as §4

mTOR = target: T5, mTOR (Homo sapiens, UniProt P42345); assay: as above; settings: 1:1 mixture of Jurkat and Ramos cell lysate
T5 construct: with a 1:1 mixture of Jurkat and Ramos cell lysate sample containing 50 mg of protein; endogenous in cells; host or cells: 1:1 mixture of Jurkat and Ramos cell lysates
Excerpt: as §4

T1 sequence (O00329 whole entry): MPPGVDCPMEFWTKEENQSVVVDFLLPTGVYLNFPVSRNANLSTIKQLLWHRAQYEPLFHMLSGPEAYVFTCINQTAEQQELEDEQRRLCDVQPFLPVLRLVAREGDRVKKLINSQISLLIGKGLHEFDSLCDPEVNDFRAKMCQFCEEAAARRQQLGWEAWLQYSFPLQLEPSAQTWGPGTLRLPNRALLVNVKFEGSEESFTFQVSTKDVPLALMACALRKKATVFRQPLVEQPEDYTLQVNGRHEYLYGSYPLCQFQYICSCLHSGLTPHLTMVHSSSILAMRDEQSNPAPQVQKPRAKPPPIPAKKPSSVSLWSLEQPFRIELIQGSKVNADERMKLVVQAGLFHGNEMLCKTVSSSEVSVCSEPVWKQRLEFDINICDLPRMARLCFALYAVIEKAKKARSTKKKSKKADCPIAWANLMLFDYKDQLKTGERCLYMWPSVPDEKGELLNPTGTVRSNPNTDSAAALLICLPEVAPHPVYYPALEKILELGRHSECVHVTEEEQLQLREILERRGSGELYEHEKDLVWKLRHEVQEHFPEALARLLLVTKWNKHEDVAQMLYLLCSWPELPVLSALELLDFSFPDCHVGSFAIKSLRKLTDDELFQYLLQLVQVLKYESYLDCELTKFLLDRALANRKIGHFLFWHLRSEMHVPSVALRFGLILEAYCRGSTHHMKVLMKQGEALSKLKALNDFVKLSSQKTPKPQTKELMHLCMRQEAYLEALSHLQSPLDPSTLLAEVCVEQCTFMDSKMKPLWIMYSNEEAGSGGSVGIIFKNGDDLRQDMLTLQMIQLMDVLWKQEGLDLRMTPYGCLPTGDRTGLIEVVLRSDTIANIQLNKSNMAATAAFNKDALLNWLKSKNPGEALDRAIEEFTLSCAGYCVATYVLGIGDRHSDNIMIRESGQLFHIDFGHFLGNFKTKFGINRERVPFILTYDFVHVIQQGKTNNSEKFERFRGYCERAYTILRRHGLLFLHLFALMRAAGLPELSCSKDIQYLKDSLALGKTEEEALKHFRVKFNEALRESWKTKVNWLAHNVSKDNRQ
T1 sequence (P27986 whole entry partner): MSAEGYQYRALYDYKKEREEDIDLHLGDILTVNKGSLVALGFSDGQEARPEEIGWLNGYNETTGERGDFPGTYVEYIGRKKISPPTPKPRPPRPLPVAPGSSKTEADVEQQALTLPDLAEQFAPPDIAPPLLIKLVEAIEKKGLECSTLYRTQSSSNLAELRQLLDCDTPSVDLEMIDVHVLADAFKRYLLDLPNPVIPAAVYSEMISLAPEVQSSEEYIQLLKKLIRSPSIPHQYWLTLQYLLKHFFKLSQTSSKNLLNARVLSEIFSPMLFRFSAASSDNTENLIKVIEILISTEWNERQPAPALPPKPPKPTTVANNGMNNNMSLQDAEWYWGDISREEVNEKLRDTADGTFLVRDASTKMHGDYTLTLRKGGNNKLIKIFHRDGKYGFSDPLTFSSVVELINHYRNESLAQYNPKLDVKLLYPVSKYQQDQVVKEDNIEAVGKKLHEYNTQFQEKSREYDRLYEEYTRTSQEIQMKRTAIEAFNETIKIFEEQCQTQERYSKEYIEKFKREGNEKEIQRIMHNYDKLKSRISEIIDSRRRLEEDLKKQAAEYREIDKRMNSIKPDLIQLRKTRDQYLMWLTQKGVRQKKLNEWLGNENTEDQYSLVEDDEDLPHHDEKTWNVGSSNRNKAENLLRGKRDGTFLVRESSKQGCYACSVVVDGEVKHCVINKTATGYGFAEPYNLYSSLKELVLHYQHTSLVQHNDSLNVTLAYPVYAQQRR

Cc1nc(NC(=O)CCOCCOCCOCCOCCN)sc1-c1ccc(Cl)c(S(C)(=O)=O)c1.Cl [phenylthiazole ligand 1, 3-(2-{2-[2-(2-amino-ethoxy)-ethoxy]-ethoxy}-ethoxy)-N-[5-(4-chloro-3-methanesulfonyl-phenyl)-4-methyl-thiazol-2yl]-propionamide hydrochloride]
capture (pulldown) of PI3K delta from cell lysate (PI3K delta): captures (pulls down)
capture (pulldown) of PI3K gamma from cell lysate (PI3K gamma): captures (pulls down)
ATM bound to immobilized ligand, identified by mass spectrometry (ATM): identified
DNA-PK bound to immobilized ligand, identified by mass spectrometry (DNA-PK): identified
mTOR bound to immobilized ligand, identified by mass spectrometry (mTOR): identified
